According to US6420131B1, “Use of fluorescein aryl ethers in high throughput cytochrome P450 inhibition assays” (Gentest Corporation, priority 1999, dated 2002):

What was measured:
Rat CYP2D1 = target: T1, Rat CYP2D1 (Rattus norvegicus, UniProt P10633); test: Turnover of fluorometric substrates by rat CYP2D1; conditions: substrate uM: Ia 2, AMMC 20, CEC 40, MFC 50, BFC 50, BQ 40, BzRes 50; 30 min; enzyme 50 nM
T1 sequence (P10633 1-504): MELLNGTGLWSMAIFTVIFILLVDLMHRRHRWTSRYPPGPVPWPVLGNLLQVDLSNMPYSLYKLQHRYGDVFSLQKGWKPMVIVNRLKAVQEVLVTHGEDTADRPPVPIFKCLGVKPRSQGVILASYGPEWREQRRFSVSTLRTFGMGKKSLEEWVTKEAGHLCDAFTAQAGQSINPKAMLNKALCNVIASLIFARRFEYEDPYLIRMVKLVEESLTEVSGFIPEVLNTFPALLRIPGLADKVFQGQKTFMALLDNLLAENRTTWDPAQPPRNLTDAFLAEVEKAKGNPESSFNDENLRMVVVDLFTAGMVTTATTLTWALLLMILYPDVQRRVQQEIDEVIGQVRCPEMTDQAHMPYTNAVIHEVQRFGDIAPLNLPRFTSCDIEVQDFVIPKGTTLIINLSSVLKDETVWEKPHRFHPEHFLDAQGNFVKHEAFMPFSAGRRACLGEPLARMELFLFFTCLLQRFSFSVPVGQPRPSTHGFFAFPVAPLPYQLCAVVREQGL

Rat CYP3A1 = target: T2, Rat CYP3A1 (Rattus norvegicus, UniProt P04800); test: Turnover of fluorometric substrates by rat CYP3A1; conditions: substrate uM: Ia 2, AMMC 20, CEC 40, MFC 50, BFC 50, BQ 40, BzRes 50; 30 min; enzyme 50 nM
T2 sequence (P04800 1-504): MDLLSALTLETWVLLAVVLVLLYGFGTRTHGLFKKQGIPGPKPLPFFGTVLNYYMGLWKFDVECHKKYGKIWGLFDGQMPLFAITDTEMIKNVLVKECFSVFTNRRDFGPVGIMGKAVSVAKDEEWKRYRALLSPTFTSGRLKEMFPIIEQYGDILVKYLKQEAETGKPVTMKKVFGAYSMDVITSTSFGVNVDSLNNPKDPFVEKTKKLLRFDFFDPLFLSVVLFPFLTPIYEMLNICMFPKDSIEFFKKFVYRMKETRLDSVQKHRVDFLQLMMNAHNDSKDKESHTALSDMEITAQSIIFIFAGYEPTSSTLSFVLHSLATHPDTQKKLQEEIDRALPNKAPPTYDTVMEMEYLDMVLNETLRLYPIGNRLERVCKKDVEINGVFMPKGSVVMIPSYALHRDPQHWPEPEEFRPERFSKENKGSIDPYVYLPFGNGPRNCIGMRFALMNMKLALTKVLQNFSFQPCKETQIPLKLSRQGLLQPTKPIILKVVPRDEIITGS

Rat CYP2C6 = target: T3, Rat CYP2C6 (Rattus norvegicus, UniProt P05178); test: Turnover of fluorometric substrates by rat CYP2C6; conditions: substrate uM: Ia 2, AMMC 20, CEC 40, MFC 50, BFC 50, BQ 40, BzRes 50; 30 min; enzyme 50 nM
T3 sequence (P05178 1-490): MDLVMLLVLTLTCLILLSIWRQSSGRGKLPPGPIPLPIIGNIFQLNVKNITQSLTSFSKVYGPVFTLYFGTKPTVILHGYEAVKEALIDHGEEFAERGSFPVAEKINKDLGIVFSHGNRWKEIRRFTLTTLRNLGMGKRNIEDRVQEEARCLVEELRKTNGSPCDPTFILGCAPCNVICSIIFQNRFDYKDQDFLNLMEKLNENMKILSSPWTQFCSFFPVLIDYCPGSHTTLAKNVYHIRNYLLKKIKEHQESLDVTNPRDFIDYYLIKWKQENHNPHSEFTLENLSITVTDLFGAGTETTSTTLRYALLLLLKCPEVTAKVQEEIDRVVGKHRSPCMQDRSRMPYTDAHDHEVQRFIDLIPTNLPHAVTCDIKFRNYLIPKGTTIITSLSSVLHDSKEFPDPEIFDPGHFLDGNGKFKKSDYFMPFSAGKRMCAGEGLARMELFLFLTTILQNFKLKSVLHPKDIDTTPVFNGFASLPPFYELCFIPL

Rat CYP1A1 = target: T4, Rat CYP1A1 (Rattus norvegicus, UniProt P00185); test: Turnover of fluorometric substrates by rat CYP1A1; conditions: substrate uM: Ia 2, AMMC 20, CEC 40, MFC 50, BFC 50, BQ 40, BzRes 50; 30 min; enzyme 50 nM (2.5 nM for CEC)
T4 sequence (P00185 1-524): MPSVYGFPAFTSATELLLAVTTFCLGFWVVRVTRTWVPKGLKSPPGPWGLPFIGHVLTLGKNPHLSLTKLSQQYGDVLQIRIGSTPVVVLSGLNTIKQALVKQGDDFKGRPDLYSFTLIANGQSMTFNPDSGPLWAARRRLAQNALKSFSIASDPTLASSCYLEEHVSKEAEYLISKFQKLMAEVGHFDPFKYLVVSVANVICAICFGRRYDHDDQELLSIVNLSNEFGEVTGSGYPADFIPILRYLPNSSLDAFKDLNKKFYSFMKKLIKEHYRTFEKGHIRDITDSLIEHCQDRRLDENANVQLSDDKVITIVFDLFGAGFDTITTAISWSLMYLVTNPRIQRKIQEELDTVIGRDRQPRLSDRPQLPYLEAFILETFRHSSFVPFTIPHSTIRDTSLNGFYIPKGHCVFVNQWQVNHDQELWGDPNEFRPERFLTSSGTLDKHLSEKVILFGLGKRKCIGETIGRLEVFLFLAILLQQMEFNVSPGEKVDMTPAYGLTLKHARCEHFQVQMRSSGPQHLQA

Rat CYP1A2 = target: T5, Rat CYP1A2 (Rattus norvegicus, UniProt P04799); test: Turnover of fluorometric substrates by rat CYP1A2; conditions: substrate uM: Ia 2, AMMC 20, CEC 40, MFC 50, BFC 50, BQ 40, BzRes 50; 30 min; enzyme 50 nM
T5 sequence (P04799 1-513): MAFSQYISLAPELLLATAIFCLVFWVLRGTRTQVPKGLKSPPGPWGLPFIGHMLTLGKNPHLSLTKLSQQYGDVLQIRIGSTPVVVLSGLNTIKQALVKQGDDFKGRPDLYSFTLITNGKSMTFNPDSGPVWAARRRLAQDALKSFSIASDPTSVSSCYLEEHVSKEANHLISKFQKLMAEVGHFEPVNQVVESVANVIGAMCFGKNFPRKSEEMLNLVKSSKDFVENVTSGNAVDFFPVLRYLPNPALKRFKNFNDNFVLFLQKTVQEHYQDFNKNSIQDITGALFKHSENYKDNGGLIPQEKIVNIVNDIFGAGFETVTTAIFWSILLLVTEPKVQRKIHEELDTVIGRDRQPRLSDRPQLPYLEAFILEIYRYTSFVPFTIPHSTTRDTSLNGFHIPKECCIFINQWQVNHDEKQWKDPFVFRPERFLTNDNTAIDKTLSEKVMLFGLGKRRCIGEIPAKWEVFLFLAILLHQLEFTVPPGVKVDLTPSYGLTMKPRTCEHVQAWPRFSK

Structure (SMILES)	Turnover Numbers, CYP2D1 (Rat CYP2D1)	Turnover Numbers, CYP3A1 (Rat CYP3A1)	Turnover Numbers, CYP2C6 (Rat CYP2C6)	Turnover Numbers, CYP1A1 (Rat CYP1A1)	Turnover Numbers, CYP1A2 (Rat CYP1A2)
O=c1cc(C(F)(F)F)c2ccc(OCc3ccccc3)cc2o1 [BFC, 7-Benzyloxy-4-trifluoromethylcoumarin]	0.25 pmol product/min/pmol enzyme	1.33 pmol product/min/pmol enzyme	2.62 pmol product/min/pmol enzyme	0.34 pmol product/min/pmol enzyme	
c1ccc(COc2ccc3cccnc3c2)cc1 [BQ, 7-Benzyloxyquinoline]	5.3 pmol product/min/pmol enzyme	8.4 pmol product/min/pmol enzyme	1.9 pmol product/min/pmol enzyme	5.7 pmol product/min/pmol enzyme	2.3 pmol product/min/pmol enzyme
O=c1ccc2nc3ccc(OCc4ccccc4)cc3oc-2c1 [BzRes, 7-benzyloxyresorufin]	0.02 pmol product/min/pmol enzyme	0.06 pmol product/min/pmol enzyme	0.02 pmol product/min/pmol enzyme	1.35 pmol product/min/pmol enzyme	0.62 pmol product/min/pmol enzyme
CCOc1ccc2cc(C#N)c(=O)oc2c1 [CEC, 7-Ethoxy-3-cyanocoumarin]		0.08 pmol product/min/pmol enzyme	2.14 pmol product/min/pmol enzyme	78 pmol product/min/pmol enzyme	1.38 pmol product/min/pmol enzyme
O=C(OCc1ccccc1)c1ccccc1-c1c2ccc(=O)cc-2oc2cc(OCc3ccccc3)ccc12 [Compound Ia, O-Benzylfluorescein Benzyl Ester]	0.159 pmol product/min/pmol enzyme	0.027 pmol product/min/pmol enzyme	0.021 pmol product/min/pmol enzyme	0.211 pmol product/min/pmol enzyme	0.041 pmol product/min/pmol enzyme
COc1ccc2c(C(F)(F)F)cc(=O)oc2c1 [MFC, 7-Methoxy-4-trifluoromethylcoumarin]	0.09 pmol product/min/pmol enzyme		11.5 pmol product/min/pmol enzyme	1.03 pmol product/min/pmol enzyme	1.32 pmol product/min/pmol enzyme
